# Entries after “also recorded” stand apart in the source; their conditions may differ.
# Columns and labels:
# LNCaP cells = assay: Binding and internalization (cell uptake) of 68Ga-labelled PSMA ligands in LNCaP cells; format: cell-based
# Method: To determine ligand internalization, LNCaP cells were seeded in a 96 V-bottom well plate at a density of 100,000 cells/well in 5% BSA (w/v)/RPMI medium (100 µL/well) and incubated for 30 min at 37 °C. Afterwards, solutions (25 µL/well) of either 5% BSA (w/v)/RPMI medium or of 2-PMPA (final concentration: 10 µM) in 5% BSA (w/v)/RPMI medium for blockade were added. Then, a solution of the ^68Ga-labeled PSMA-ligand (25 µL/well; 0.4 nM final concentration; AM = 26-30 MBq/nmol) was added to all wells, and the cells were incubated for 5, 15, 30, and 60 min, respectively, at 37 °C. Hereby, each time point was performed in triplicates and each experiment was repeated three times. The internalization process was terminated by placing the plate for 5 min on ice. The free radioligand was obtained by centrifugation of the plate at 600 g for 3 min and removal of the supernatant. Each well was then washed with ice-cold PBS and the fractions of the first two steps were combined. For removal of cell-bound PSMA-ligand, the cells were treated in a next step with ice-cold 2-PMPA-solution (10 µM in PBS; 150 µL/well; 15 min on ice), centrifuged (600 g, 3 min), and washed with ice-cold PBS (150 µL/well). The fractions were again combined. For the analysis of internalized radioligand, the fractions of a 1.0 N NaOH (150 µL/well; 10 min on ice) treatment as well as a concomitant washing step with 1.0 N NaOH (150 µL/well) were pooled. Free, surface bound, and internalized activity, respectively, was measured in a γ-counter.
# PSMA = molecular target: T1, PSMA (Homo sapiens, UniProt Q04609); assay: IC50 determination by competition with [68Ga]-PSMA-617 on LNCaP cells; format: binding; details: [68Ga]-PSMA-617 0.4 nM, 60 min on ice, natGa-labelled ligands
# T1 construct: endogenous in cells; host or cells: LNCaP cells
# Method: In the meantime, dilution series of the compounds were prepared in 1% BSA (w/v)/HBSS in a separate 96 U-bottom deep well plate ranging from 12 µM to 153.6 pM in 1:5 dilution steps. Next, solutions (25 µL/well) of either 1% BSA (w/v)/HBSS (control) or of the respective dilution series were transferred to the LNCaP cells containing plate. Hereby, each concentration was pipetted in triplicates and each experiment was repeated three times. Subsequently, [^68Ga]-PSMA-617 (25 µL/well; 0.4 nM final concentration; AM = 26-30 MBq/nmol) in 1% BSA (w/v)/HBSS was added to all wells and the plate was incubated for 60 min on ice. Afterwards, the experiment was terminated by centrifugation at 600 g for 3 min and removal of the supernatant. The cells were then washed with ice-cold HBSS (150 µL/well), centrifuged (600 g, 3 min), and the supernatant as well as the washing fraction were combined, representing the amount of free, unbound radioligand. Bound radioligand was obtained by lysis of the cells with 1.0 N NaOH (150 µL/well; 10 min on ice). Afterwards, the plate was washed a second time with 1.0 N NaOH (150 µL/well). Hereby, the washing step was combined with the NaOH fraction. The quantification of bound and free radioligand was finally accomplished via measuring the samples in a γ-counter.
# [1] = Lipophilicity, n-octanol/PBS distribution coefficient; format: physicochemical; details: pH 7.4
# Method: Lipophilicity of the conjugates was determine after radiolabeling with ^68Ga. The PSMA ligand (0.80 MBq) was dissolved in PBS (500 µL/pH 7.4) in a reaction vial (1.5 mL; n = 10). Afterwards, n-octanol was added (500 µL) and the mixture was rigorously vortexed for 3 min. Subsequent centrifugation (Biofuge 15, Heraus Sepatech, Osterode, Germany) at 13,000 rpm for 5 min led to a phase separation. After measuring 100 µL of each phase in a γ-counter, the distribution coefficient (logD(O/PBS)) was calculated with Microsoft Excel.
# Serum stability = format: in vitro ADME; details: 37 °C; for stable (intact) after incubation in human serum: 2 hours; for intact after incubation in human serum: 24 hours
# Method: For serum stability analysis, 13.5 µL human serum were mixed with 1.5 µL of an aqueous solution of the test compound (200 µM final concentration) and incubated at 37 °C for 0.5, 1, 2, and 24 h, respectively. Afterwards, 25.0 µL MeCN were added, the suspension was centrifuged (14,000 rpm, 30 min, 4 °C), the supernatant was recovered, and finally analyzed by HPLC-ESI-MS using a linear elution gradient from 10 to 95% (v/v) MeCN/0.1% (v/v) TFA in water/0.1% (v/v) TFA for 15 min.
# [2] = tested on: PC3-PIP/PC3-flu bilateral tumor model; format: in vivo, Athymic nude mice
# Excerpt: In vivo experiment. Athymic nude mice were subcutaneously injected with 4×10^6 PC3-PIP (PSMA+) and 3×10^6 PC3-Flu (PSMA-) cells to produce a bilateral tumor model.
# At the completion of the imaging study, mice were euthanized and organs were resected, weight, and analyzed by gamma counting to determine tracer biodistribution. Data are ported as percentage of injected activity per gram of tissue (%IA/g).
# At the completion of the imaging study, mice were euthanized and organs were resected, weighted, and analyzed by gamma counting to determine tracer biodistribution. Biodistribution data are reported as percentage of injected dose per gram of tissue (%ID/g).
# PSMA+ (LNCaP) = assay: Cell viability (Alamar Blue), monotherapy, PSMA+ cells; format: cell-based; details: 72h
# Method: (§1) Black, clear-bottom 96 well culture plates were coated with poly-L-lysine. Afterwards, the plates were washed with PBS (1 × 100 µL), cells were seeded (2000 cells/well for PC3, 10000 cells/well for LNCaP), and cultured for 24 h (PC3) or 48 h (LNCaP) at 37 °C. The culture medium was removed, and new culture medium containing 10 mM GSH-OEt was added and incubated for 1 h at 37 °C. After removal of the GSH-OEt medium, new culture medium containing the PSMA-Ruc conjugates was added. After 72 h of incubation at 37 °C, cells were treated with Alamar Blue for visualization of cell viability. […] Each data points represents one biological replicate.
# [3] = tested on: PC3-PIP cells / PC3-flu cells; assay: Fluorescence microscopy of Ruc delivery in PSMA+ and PSMA- cells; format: cell-based; details: PSMA+ PC3-PIP versus PSMA- PC3-flu cells (Figure 4A)
# Method: For microscopic analysis, black clear-bottom 96 well cell culture plates with cover-glass bottom (µ plate 96 well black; ibidi) were coated with poly-L-lysine (0.01% (w/v) in sterile water). Cells were seeded at a density of 20-40,000 cells/well and cultured for 24 h at 37 °C. Subsequently, the PSMA ligands (1 µM; 100 µL/well) were directly added with or without blocking and ligand treatment was accomplished for 5, 60 or 180 min at 37 °C, while in case of GSH preincubation, GSH-OEt (10 mM; 100 µL/well) was applied for 1 h at 37 °C prior to ligand treatment. For the latter case, the PSMA ligands (1 µM, 100 µL/well) were added after removal of the GSH containing medium and the incubation time was 60 min at 37 °C. Afterwards, cells were washed with PBS (2×) and fixed with 4% (w/v) PFA in PBS for 8 min at RT (pH 7.4, 100 µL/well). CellMask™ Green Plasma Membrane Stain was used to stain the cell membrane, whereas for cell nuclei DRAQ5™ was used. Before imaging, cells were washed with PBS (3×) and mounted in PBS (150 µL/well). Finally, cells were imaged using an EVOS M7000 microscope (Thermo Fisher Scientific).
# PSMA- (PC3) = assay: Cell viability (Alamar Blue), monotherapy, PSMA- cells; format: cell-based; details: PC3, 20 µM, 72h, pretreated with 10 mM GSH; read-out: cell viability compared to untreated cells
# Method: as §1
# mCRPC = details: TRITON2 trial, Abida et al., 2020; cited from earlier work
# [4] = Wilson et al. 2019; cited from earlier work
# late stage mCRPC = late stage mCRPC patients, versus 11.3 months with standard therapy; Sartor et al., 2021; cited from earlier work
# T1 sequence (Q04609 whole entry): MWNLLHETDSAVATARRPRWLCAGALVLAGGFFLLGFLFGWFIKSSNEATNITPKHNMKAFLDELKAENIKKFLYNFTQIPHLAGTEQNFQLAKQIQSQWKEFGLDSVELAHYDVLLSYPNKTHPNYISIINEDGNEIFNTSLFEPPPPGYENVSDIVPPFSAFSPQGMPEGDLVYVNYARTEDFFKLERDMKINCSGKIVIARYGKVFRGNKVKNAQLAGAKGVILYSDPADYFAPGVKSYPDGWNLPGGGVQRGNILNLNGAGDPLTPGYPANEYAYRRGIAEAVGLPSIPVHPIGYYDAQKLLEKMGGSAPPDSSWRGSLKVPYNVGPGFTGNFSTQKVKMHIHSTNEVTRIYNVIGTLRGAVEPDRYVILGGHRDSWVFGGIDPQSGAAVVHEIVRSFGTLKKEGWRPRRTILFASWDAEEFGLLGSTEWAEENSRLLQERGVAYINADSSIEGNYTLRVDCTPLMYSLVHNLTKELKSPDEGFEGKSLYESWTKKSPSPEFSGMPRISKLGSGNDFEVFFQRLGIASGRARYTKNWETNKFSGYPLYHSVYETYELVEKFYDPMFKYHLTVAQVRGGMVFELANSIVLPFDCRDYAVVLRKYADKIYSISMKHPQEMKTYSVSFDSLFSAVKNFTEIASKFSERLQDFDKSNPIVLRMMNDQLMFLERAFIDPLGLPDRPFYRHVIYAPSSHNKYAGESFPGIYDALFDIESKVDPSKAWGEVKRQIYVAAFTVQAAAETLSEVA
SMILES,% bound of total applied dose (LNCaP cells),IC50 (PSMA),logD [1],stable (intact) after incubation in human serum (Serum stability),intact after incubation in human serum (Serum stability),further results
"CN(Cc1ccc(-c2[nH]c3cc(F)cc4c3c2CCNC4=O)cc1)C(=O)CCSSCCC(=O)NCCCC[C@@H](NC(=O)CCC(C(=O)O)N1CCN(CC(=O)O)CCN(CC(=O)O)CCN(CC(=O)O)CC1)C(=O)N[C@H](CC(=O)O)C(=O)N[C@H](Cc1ccc(O)cc1)C(=O)N[C@H](Cc1ccccc1)C(=O)N[C@@H](Cc1ccc2ccccc2c1)C(=O)NCCCCCC(=O)NCCCC[C@H](NC(=O)N[C@@H](CCC(=O)O)C(=O)O)C(=O)O (single isomer, unassigned) [Conjugate 11]",6.45 ± 1.16%,5.34 ± 1.45 nM,-3.11 ± 0.08,93%,74%,"biodistribution profile ([2]; 68Ga-labelled, 1 h post-injection): uptake limited to PSMA-expressing tumors and kidneys; tumor uptake (PET/CT, biodistribution) ([2]; PSMA+ PC3-PIP versus PSMA- PC3-Flu tumors, 60 min p.i.): uptake in PSMA+ PC3-PIP tumors and no accumulation in PSMA- PC3-Flu tumors"
"CN(Cc1ccc(-c2[nH]c3cc(F)cc4c3c2CCNC4=O)cc1)C(=O)CCCCCCC(=O)NCCCC[C@@H](NC(=O)CCC(C(=O)O)N1CCN(CC(=O)O)CCN(CC(=O)O)CCN(CC(=O)O)CC1)C(=O)N[C@H](CC(=O)O)C(=O)NCCC(=O)NC[C@H]1CC[C@H](C(=O)N[C@@H](Cc2ccc3ccccc3c2)C(=O)NCCCC[C@H](NC(=O)N[C@@H](CCC(=O)O)C(=O)O)C(=O)O)CC1 (stereo partly drawn) [Conjugate 13, DOTAGA-n-Lys(Ruc-Sub)-n-Asp-β-Ala-TXA-L-Nal-KuE]",10.8 ± 2.07%,0.67 ± 0.09 nM,-2.58 ± 0.05,94%,89%,cytotoxic effects (PSMA+ (LNCaP); 20 µM): did not show cytotoxic effects
"CNCc1ccc(-c2[nH]c3cc(F)cc4c3c2CCNC4=O)cc1 [Ruc, Rucaparib]",,,,,,"localization of Ruc fluorescence [3]: localized in the cell nucleus of PSMA-expressing and non-expressing cells non-selectively; also recorded: non-selective uptake in PSMA+ and PSMA- cells; viability at 20 µM (PSMA+ (LNCaP); Homo sapiens, pretreated with 10 mM GSH, read-out: cell viability compared to untreated cells): 30 to 50%; viability at 20 µM (PSMA- (PC3)): 30 to 50%; patients with a partial response (mCRPC): 30-40%; patients with an objective response (mCRPC): 44%"
O=C(c1cc(Cc2n[nH]c(=O)c3ccccc23)ccc1[18F])N1CCN(C(=O)C2CC2)CC1 [^18F-Olaparib],,,,,,typical biodistribution of PARPi [4]: low tumor uptake and high gut uptake
O=C([O-])CN1CCN(CC(=O)[O-])CCN(CC(=O)NCC2CCC(C(=O)N[C@@H](Cc3ccc4ccccc4c3)C(=O)NCCCC[C@H](NC(=O)N[C@@H](CCC(=O)O)C(=O)O)C(=O)O)CC2)CCN(CC(=O)[O-])CC1.[177Lu+3] (some centres unmarked) [^177Lu-PSMA-617],,,,,,median overall survival (late stage mCRPC): 15.3 months
